# In PubChem BioAssay AID330 (DTP/NCI, 2004):
# Where “and” joins values, the source holds several entries; their conditions need not be identical. Identical values can stand only once. Inconclusive results and toxic doses are left out.
# Test system: P388 leukemia ip, CD2F1 mice, survival T/C
# Test: NCI In Vivo Anticancer Drug Screen. Data for tumor model P388 Leukemia (intraperitoneal) in CD2F1 (CDF1) mice
# Settings: endpoint: median survival time, higher = longer survival
# Outline: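 Mice carrying the transplanted tumor received test compound or vehicle. Survival was recorded in each group, and the value is the treated-group measurement divided by that of the vehicle-treated control group.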
# [1] = dose: 50.0 mg/kg/injection, schedule: Q01DX009 (ip), vehicle: saline with Tween-80
# [2] = dose: 100.0 mg/kg/injection, schedule: Q01DX009 (ip), vehicle: saline with Tween-80
# [3] = dose: 200.0 mg/kg/injection, schedule: Q01DX009 (ip), vehicle: saline with Tween-80
# [4] = dose: 50.0 mg/kg/injection, schedule: Q01DX005 (ip), vehicle: saline with Tween-80
# [5] = dose: 100.0 mg/kg/injection, schedule: Q01DX005 (ip), vehicle: saline with Tween-80
# [6] = dose: 25.0 mg/kg/injection, schedule: Q01DX009 (ip), vehicle: saline with Tween-80
smiles,measurement,setting,value
COc1cc([C@@H]2c3cc4c(cc3[C@@H](OC3OC5CO[C@@H](c6cccs6)OC5C(O)C3O)[C@H]3COC(=O)[C@H]23)OCO4)cc(OC)c1O (stereo not given in full),T/C,"dose: 0.25 mg/kg/injection, schedule: Q01DX009 (ip), vehicle: saline",170 % of control
same,T/C,"dose: 0.5 mg/kg/injection, schedule: Q01DX009 (ip), vehicle: saline",208 % of control
same,T/C,"dose: 0.75 mg/kg/injection, schedule: Q01DX005 (iv), vehicle: saline",100 % of control
same,T/C,"dose: 1.0 mg/kg/injection, schedule: Q01DX009 (ip), vehicle: saline",261 % of control
same,T/C,"dose: 1.5 mg/kg/injection, schedule: Q01DX005 (iv), vehicle: saline",104 % of control
same,T/C,"dose: 2.0 mg/kg/injection, schedule: Q01DX005 (ip), vehicle: saline",155 % of control
same,T/C,"dose: 2.0 mg/kg/injection, schedule: Q01DX009 (ip), vehicle: saline",157 % of control and 449 % of control
same,T/C,"dose: 3.0 mg/kg/injection, schedule: Q01DX005 (iv), vehicle: saline",99 % of control
same,T/C,"dose: 3.24 mg/kg/injection, schedule: Q04DX003 (ip), vehicle: clinical formulation",225 % of control
same,T/C,"dose: 3.89 mg/kg/injection, schedule: Q04DX003 (ip), vehicle: saline",166 % of control
same,T/C,"dose: 4.0 mg/kg/injection, schedule: Q01DX005 (ip), vehicle: saline",166 % of control
same,T/C,"dose: 5.4 mg/kg/injection, schedule: Q04DX003 (ip), vehicle: clinical formulation",239 % of control
same,T/C,"dose: 6.0 mg/kg/injection, schedule: Q01DX005 (ip), vehicle: saline",167 % of control
same,T/C,"dose: 6.0 mg/kg/injection, schedule: Q01DX005 (iv), vehicle: saline",116 % of control
same,T/C,"dose: 6.48 mg/kg/injection, schedule: Q04DX003 (ip), vehicle: clinical formulation",170 % of control
same,T/C,"dose: 6.48 mg/kg/injection, schedule: Q04DX003 (ip), vehicle: saline",163 % of control
same,T/C,"dose: 7.78 mg/kg/injection, schedule: Q04DX003 (ip), vehicle: saline",175 % of control
same,T/C,"dose: 8.0 mg/kg/injection, schedule: Q01DX005 (ip), vehicle: saline",222 % of control
same,T/C,"dose: 9.0 mg/kg/injection, schedule: Q04DX003 (ip), vehicle: clinical formulation",371 % of control
same,T/C,"dose: 10.8 mg/kg/injection, schedule: Q04DX003 (ip), vehicle: clinical formulation",203 % of control
same,T/C,"dose: 10.8 mg/kg/injection, schedule: Q04DX003 (ip), vehicle: saline",211 % of control
same,T/C,"dose: 13.0 mg/kg/injection, schedule: Q04DX002 (ip), vehicle: saline",168 % of control
same,T/C,"dose: 13.0 mg/kg/injection, schedule: Q04DX003 (ip), vehicle: saline",194 % of control
same,T/C,"dose: 15.0 mg/kg/injection, schedule: Q04DX003 (ip), vehicle: clinical formulation",371 % of control
same,T/C,"dose: 16.0 mg/kg/injection, schedule: Q01DX005 (ip), vehicle: saline",206 % of control
same,T/C,"dose: 18.0 mg/kg/injection, schedule: Q04DX003 (ip), vehicle: clinical formulation",252 % of control
same,T/C,"dose: 18.0 mg/kg/injection, schedule: Q04DX003 (ip), vehicle: saline",211 % of control
same,T/C,"dose: 21.6 mg/kg/injection, schedule: Q04DX002 (ip), vehicle: saline",171 % of control
same,T/C,"dose: 21.6 mg/kg/injection, schedule: Q04DX003 (ip), vehicle: saline",203 % of control
same,T/C,"dose: 25.0 mg/kg/injection, schedule: Q04DX003 (ip), vehicle: clinical formulation",287 % of control
same,T/C,"dose: 30.0 mg/kg/injection, schedule: Q04DX003 (ip), vehicle: clinical formulation",211 % of control
same,T/C,"dose: 30.0 mg/kg/injection, schedule: Q04DX003 (ip), vehicle: saline",257 % of control
same,T/C,"dose: 36.0 mg/kg/injection, schedule: Q04DX003 (ip), vehicle: saline",296 % of control
same,T/C,"dose: 60.0 mg/kg/injection, schedule: Q04DX002 (ip), vehicle: saline",198 % of control
same,T/C,"dose: 60.0 mg/kg/injection, schedule: Q04DX003 (ip), vehicle: saline",296 % of control
same,T/C,"dose: 100.0 mg/kg/injection, schedule: Q04DX002 (ip), vehicle: saline",217 % of control
OCC1CC=CCC1CO (stereo not given),T/C,[1],96 % of control
same,T/C,[2],101 % of control
same,T/C,[3],100 % of control
O=c1[nH]nc2c3cccc4cccc(c5ccc(O)c1c52)c43,T/C,"dose: 60.0 mg/kg/injection, schedule: Q01DX005 (ip), vehicle: Klucel (hydroxypropylcellulose) (HPC)",103 % of control
same,T/C,"dose: 120.0 mg/kg/injection, schedule: Q01DX005 (ip), vehicle: Klucel (hydroxypropylcellulose) (HPC)",97 % of control
same,T/C,"dose: 240.0 mg/kg/injection, schedule: Q01DX005 (ip), vehicle: Klucel (hydroxypropylcellulose) (HPC)",97 % of control
CSCCC(N)[P+](=O)O (stereo not given),T/C,"dose: 50.0 mg/kg/injection, schedule: Q01DX005 (ip), vehicle: saline",99 % of control
same,T/C,"dose: 100.0 mg/kg/injection, schedule: Q01DX005 (ip), vehicle: saline",95 % of control
same,T/C,"dose: 200.0 mg/kg/injection, schedule: Q01DX005 (ip), vehicle: saline",99 % of control
COc1ccc2nc(NCCNCCO)cc(NCCNCCO)c2c1,T/C,"dose: 30.0 mg/kg/injection, schedule: Q01DX005 (ip), vehicle: water",98 % of control
same,T/C,"dose: 60.0 mg/kg/injection, schedule: Q01DX005 (ip), vehicle: water",97 % of control
CCCCCCC1(C(=O)OCCN(CC)CC)CCCCC1,T/C,[4],101 % of control
same,T/C,[5],105 % of control
Cc1ccc(NC(=S)NCC2CCCO2)cc1C (stereo not given),T/C,"dose: 50.0 mg/kg/injection, schedule: Q01DX009 (ip), vehicle: Klucel (hydroxypropylcellulose) (HPC)",102 % of control and 98 % of control
same,T/C,"dose: 100.0 mg/kg/injection, schedule: Q01DX009 (ip), vehicle: Klucel (hydroxypropylcellulose) (HPC)",91 % of control
same,T/C,"dose: 200.0 mg/kg/injection, schedule: Q01DX009 (ip), vehicle: Klucel (hydroxypropylcellulose) (HPC)",92 % of control and 93 % of control and 97 % of control
CCCCOC1OCN(C)CC1(C)C (stereo not given),T/C,[6],98 % of control
same,T/C,[1],114 % of control
COc1cccc2c1C(=O)c1c(O)c3c(c(O)c1C2=O)C[C@@](O)(C(C)O)C[C@@H]3OC1CC(N2CCC(OC)CC2)C(O)C(C)O1 (stereo not given in full),T/C,"dose: 0.78 mg/kg/injection, schedule: Q04DX003 (ip), vehicle: water",112 % of control
same,T/C,"dose: 1.56 mg/kg/injection, schedule: Q04DX003 (ip), vehicle: water",114 % of control
same,T/C,"dose: 3.12 mg/kg/injection, schedule: Q04DX003 (ip), vehicle: water",111 % of control and 117 % of control
same,T/C,"dose: 6.25 mg/kg/injection, schedule: Q04DX003 (ip), vehicle: water",188 % of control
same,T/C,"dose: 12.5 mg/kg/injection, schedule: Q04DX003 (ip), vehicle: water",158 % of control and 240 % of control
same,T/C,"dose: 25.0 mg/kg/injection, schedule: Q04DX003 (ip), vehicle: water",118 % of control
CCOC(=O)C1=C(C#N)C2(CCC(OCc3ccccc3)CC2)C(=O)O1 (stereo not given),T/C,[6],90 % of control
same,T/C,"dose: 25.0 mg/kg/injection, schedule: Q01DX009 (ip), vehicle: saline",104 % of control
same,T/C,[1],92 % of control
same,T/C,"dose: 50.0 mg/kg/injection, schedule: Q01DX009 (ip), vehicle: saline",104 % of control and 106 % of control and 100 % of control
same,T/C,[2],119 % of control
same,T/C,"dose: 100.0 mg/kg/injection, schedule: Q01DX009 (ip), vehicle: saline",108 % of control and 116 % of control and 102 % of control
same,T/C,[3],123 % of control
same,T/C,"dose: 200.0 mg/kg/injection, schedule: Q01DX009 (ip), vehicle: saline",119 % of control and 100 % of control
Nc1ncnc2c1ncn2CC(O)CCl (stereo not given),T/C,"dose: 50.0 mg/kg/injection, schedule: Q01DX005 (ip), vehicle: Klucel (hydroxypropylcellulose) (HPC)",100 % of control
same,T/C,"dose: 100.0 mg/kg/injection, schedule: Q01DX005 (ip), vehicle: Klucel (hydroxypropylcellulose) (HPC)",99 % of control
same,T/C,"dose: 200.0 mg/kg/injection, schedule: Q01DX005 (ip), vehicle: Klucel (hydroxypropylcellulose) (HPC)",100 % of control
C[Si](C)(C)O[C@@H]1CCCC1N (stereo not given in full),T/C,"dose: 60.0 mg/kg/injection, schedule: Q01DX005 (ip), vehicle: saline with Tween-80",106 % of control
same,T/C,"dose: 120.0 mg/kg/injection, schedule: Q01DX005 (ip), vehicle: saline with Tween-80",97 % of control
same,T/C,"dose: 240.0 mg/kg/injection, schedule: Q01DX005 (ip), vehicle: saline with Tween-80",105 % of control
S=c1nc(-c2ccccn2)c(-c2ccccn2)n[nH]1,T/C,[4],116 % of control and 117 % of control
same,T/C,[5],121 % of control
same,T/C,"dose: 200.0 mg/kg/injection, schedule: Q01DX005 (ip), vehicle: saline with Tween-80",119 % of control and 120 % of control
same,T/C,"dose: 400.0 mg/kg/injection, schedule: Q01DX005 (ip), vehicle: saline with Tween-80",120 % of control
C(=N\NC1=NCCN1)/c1c[nH]c2ccccc12,T/C,[4],101 % of control
same,T/C,[5],97 % of control
